Results on 17 compounds are retold here after patent US10308643B2, “Heterocyclic compound” (Takeda Pharmaceutical Company Limited, priority 2015, dated 2019).

Common to all, as to type: biochemical
For one test, the target named is T1, HDAC1 enzyme (Homo sapiens, UniProt Q13547).
T1 construct: transducing full length HDAC1 and HDAC6 genes into Sf-9 insect cells; GST; purchased SignalChem; host or cells: Sf-9 insect cells
Briefly: HDAC1/6 Enzyme Inhibitory Assay (HDAC-Glo I/II Assay kit), HDAC1. The following applies: 1 μM test compound; wells without enzyme = 100% inhibition; read-out: HDAC1 inhibitory rate (%) (1 μM). An outline of the steps: (§1)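 Luminescence readout (HDAC-Glo I/II) after 20 min RT reaction of GST-purified full-length HDAC1 or HDAC6 (Sf-9 expressed) with substrate-developer; enzyme and compound preincubated 60 min RT; buffer 24 mM Tris-HCl pH 7.5, 0.6 mM glutathione, 0.01% Tween-20; no-enzyme wells = 100% inhibition.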

A further test has as its target T2, HDAC9 enzyme (Homo sapiens, UniProt Q9UKV0).
T2 construct: transducing full length HDAC9 gene into Sf-9 insect cells; made in house; host or cells: Sf-9 insect cells
Briefly: HDAC9 Enzyme Inhibitory Assay (HDAC-Glo class IIa). As to conditions: 1 μM test compound; wells without enzyme = 100% inhibition; read-out: HDAC9 inhibitory rate (%) (1 μM). The essentials: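 Luminescent HDAC-Glo class IIa readout after a 20 min room-temperature reaction; relative inhibition referenced to enzyme-free wells as 100%. Test compound first preincubated 60 min with Sf-9-expressed, Ni-NTA-purified full-length HDAC9 in pH 7.5 Tris buffer containing 135 mM NaCl, 0.6 mM glutathione and 0.01% Tween-20.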

For another test, the target named is T3, HDAC6 enzyme (Homo sapiens, UniProt Q9UBN7).
T3 construct: transducing full length HDAC1 and HDAC6 genes into Sf-9 insect cells; GST; purchased SignalChem; host or cells: Sf-9 insect cells
T3 sequence (Q9UBN7 1-1215): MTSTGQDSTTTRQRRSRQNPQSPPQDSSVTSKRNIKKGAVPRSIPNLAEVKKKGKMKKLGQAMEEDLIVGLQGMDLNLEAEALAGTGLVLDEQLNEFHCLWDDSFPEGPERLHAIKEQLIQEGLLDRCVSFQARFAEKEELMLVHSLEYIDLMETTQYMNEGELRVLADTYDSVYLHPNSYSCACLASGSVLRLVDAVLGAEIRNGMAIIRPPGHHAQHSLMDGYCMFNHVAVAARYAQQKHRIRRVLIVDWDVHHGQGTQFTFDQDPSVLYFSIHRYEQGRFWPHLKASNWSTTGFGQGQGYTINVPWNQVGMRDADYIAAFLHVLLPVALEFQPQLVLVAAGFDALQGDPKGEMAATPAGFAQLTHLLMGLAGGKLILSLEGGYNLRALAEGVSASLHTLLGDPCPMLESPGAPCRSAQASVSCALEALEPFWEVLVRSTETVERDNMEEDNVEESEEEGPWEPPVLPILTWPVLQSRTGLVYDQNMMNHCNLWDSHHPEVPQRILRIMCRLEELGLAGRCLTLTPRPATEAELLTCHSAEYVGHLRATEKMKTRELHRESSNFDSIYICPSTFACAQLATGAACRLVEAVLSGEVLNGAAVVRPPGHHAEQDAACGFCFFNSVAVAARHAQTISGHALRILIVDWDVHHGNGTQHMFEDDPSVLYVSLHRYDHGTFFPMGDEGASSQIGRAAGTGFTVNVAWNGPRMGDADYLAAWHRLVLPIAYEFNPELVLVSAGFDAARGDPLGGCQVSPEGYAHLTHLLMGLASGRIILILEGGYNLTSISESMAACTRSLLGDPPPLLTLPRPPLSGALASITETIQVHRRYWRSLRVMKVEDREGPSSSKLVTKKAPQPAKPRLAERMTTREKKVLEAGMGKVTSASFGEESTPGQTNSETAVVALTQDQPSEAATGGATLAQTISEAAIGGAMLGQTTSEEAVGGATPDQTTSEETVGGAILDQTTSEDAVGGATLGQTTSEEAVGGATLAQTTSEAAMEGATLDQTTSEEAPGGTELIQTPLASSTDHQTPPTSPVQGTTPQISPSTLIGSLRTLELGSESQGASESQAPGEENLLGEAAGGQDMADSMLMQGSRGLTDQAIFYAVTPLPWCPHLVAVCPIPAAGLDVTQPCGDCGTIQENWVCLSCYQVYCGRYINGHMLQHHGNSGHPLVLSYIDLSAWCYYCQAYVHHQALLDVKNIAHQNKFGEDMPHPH
Briefly: HDAC1/6 Enzyme Inhibitory Assay (HDAC-Glo I/II Assay kit), HDAC6. The following applies: 1 μM test compound; wells without enzyme = 100% inhibition; read-out: HDAC6 inhibitory rate (%) (1 μM). The essentials: as §1

T2 sequence (Q9UKV0 whole entry, species assumed): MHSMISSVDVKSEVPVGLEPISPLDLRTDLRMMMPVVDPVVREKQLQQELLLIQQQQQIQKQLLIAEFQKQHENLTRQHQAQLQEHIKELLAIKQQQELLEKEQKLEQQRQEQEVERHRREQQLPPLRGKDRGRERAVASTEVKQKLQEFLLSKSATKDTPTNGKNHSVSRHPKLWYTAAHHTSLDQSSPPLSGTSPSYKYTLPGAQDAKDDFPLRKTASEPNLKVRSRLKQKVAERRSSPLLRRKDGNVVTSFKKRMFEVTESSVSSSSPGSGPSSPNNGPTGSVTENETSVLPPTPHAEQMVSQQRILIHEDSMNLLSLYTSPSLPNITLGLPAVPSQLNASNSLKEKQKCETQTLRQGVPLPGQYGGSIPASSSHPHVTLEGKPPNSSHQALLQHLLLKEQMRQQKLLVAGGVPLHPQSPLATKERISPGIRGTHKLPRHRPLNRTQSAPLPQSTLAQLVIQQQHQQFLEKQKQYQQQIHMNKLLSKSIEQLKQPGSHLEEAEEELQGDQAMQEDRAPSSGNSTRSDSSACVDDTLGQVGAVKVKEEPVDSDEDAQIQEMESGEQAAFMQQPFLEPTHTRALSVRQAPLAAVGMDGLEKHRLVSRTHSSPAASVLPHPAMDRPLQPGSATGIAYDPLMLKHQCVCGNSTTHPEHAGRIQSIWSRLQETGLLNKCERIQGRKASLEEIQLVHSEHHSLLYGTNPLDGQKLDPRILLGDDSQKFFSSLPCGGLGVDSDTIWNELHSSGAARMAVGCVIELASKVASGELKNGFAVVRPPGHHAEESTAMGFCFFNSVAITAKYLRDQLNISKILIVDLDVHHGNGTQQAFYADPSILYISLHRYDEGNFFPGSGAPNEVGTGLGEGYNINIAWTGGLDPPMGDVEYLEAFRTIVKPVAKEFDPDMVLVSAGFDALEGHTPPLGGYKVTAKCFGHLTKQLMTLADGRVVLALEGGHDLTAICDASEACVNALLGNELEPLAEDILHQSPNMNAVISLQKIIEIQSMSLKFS
T1 sequence (Q13547 whole entry): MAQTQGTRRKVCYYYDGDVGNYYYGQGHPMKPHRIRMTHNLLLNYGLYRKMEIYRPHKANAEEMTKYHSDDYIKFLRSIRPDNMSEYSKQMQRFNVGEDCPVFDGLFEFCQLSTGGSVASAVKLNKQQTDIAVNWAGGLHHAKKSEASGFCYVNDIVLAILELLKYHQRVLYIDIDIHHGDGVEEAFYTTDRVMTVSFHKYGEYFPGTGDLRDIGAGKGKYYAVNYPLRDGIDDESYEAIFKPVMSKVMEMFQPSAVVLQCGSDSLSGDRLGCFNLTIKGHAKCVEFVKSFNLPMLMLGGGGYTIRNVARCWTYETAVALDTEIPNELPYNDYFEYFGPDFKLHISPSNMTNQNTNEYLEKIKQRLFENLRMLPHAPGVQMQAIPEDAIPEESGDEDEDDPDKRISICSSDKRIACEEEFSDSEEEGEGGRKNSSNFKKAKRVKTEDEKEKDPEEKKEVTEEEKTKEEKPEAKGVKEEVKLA

Consider `CC(C)(C)OC(=O)N[C@H]1CCCC[C@@H]1N1Cc2ccc(-c3noc(C(F)(F)F)n3)cc2C1=O` [Example 27, tert-butyl ((1S,2S)-2-(1-oxo-6-(5-(trifluoromethyl)-1,2,4-oxadiazol-3-yl)-1,3-dihydro-2H-isoindol-2-yl)cyclohexyl)carbamate], for which the figures for the inhibition at 1 µM at HDAC1 enzyme, at HDAC9 enzyme and on HDAC6 enzyme were 16%, 76% and 36%, respectively.
As for `N[C@@H]1CCCC[C@H]1N1Cc2ccc(-c3noc(C(F)(F)F)n3)cc2C1=O` [Example 28, 2-((1R,2R)-2-aminocyclohexyl)-6-[5-(trifluoromethyl)-1,2,4-oxadiazol-3-yl)isoindolin-1-one], the values for the inhibition at 1 µM at HDAC1 enzyme, at HDAC9 enzyme and on HDAC6 enzyme were 3%, 78% and 89%, respectively.
On to `N[C@H]1CCCC[C@@H]1N1Cc2ccc(-c3noc(C(F)(F)F)n3)cc2C1=O` [Example 29, 2-((1S,2S)-2-aminocyclohexyl)-6-(5-(trifluoromethyl)-1,2,4-oxadiazol 3-yl)isoindolin-1-one], for which the values for the inhibition at 1 µM on HDAC1 enzyme, at HDAC9 enzyme and on HDAC6 enzyme were -2%, 45% and 34%, respectively.
On to `CC(C)(C)OC(=O)N1CC[C@H](N2Cc3ccc(-c4noc(C(F)(F)F)n4)cc3C2=O)[C@@H](c2ccccc2)C1` [Example 30, tert-butyl (3S,4S)-4-(1-oxo-6-(5-(trifluoromethyl)-1,2,4-oxadiazol-3-yl)-1,3-dihydro-2H-isoindol-2-yl)-3-phenylpiperidine-1-carboxylate], for which the inhibition at 1 µM at HDAC1 enzyme is 30%; on HDAC9 enzyme, 84%; at HDAC6 enzyme it was 97%.
`O=C1c2cc(-c3noc(C(F)(F)F)n3)ccc2CN1[C@H]1CCNC[C@@H]1c1ccccc1` [Example 31, 2-((3S,4S)-3-phenylpiperidin-4-yl)-6-(5-(trifluoromethyl)-1,2,4-oxadiazol-3-yl)isoindolin-1-one]: the figures for the inhibition at 1 µM on HDAC1 enzyme, at HDAC9 enzyme and at HDAC6 enzyme were 78%, 97% and 99%, respectively.
For the compound `O=C(N[C@@H]1CCCC[C@H]1N1Cc2ccc(-c3noc(C(F)(F)F)n3)cc2C1=O)C1CC1` [Example 32, N-((1R,2R)-2-(1-oxo-6-(5-(trifluoromethyl)-1,2,4-oxadiazol-3-yl)-1,3-dihydro-2H-isoindol-2-yl)cyclohexyl)cyclopropanecarboxamide], the inhibition at 1 µM on HDAC1 enzyme was 5%; on HDAC9 enzyme it was 52%; on HDAC6 enzyme it was 99%.
Turning to `O=C(N[C@H]1CCCC[C@@H]1N1Cc2ccc(-c3noc(C(F)(F)F)n3)cc2C1=O)C1CC1` [Example 33, N-((1S,2S)-2-(1-oxo-6-(5-(trifluoromethyl)-1,2,4-oxadiazol-3-y)-1,3-dihydro-2H-isoindol-2-yl)cyclohexyl)cyclopropanecarboxamide], the inhibition at 1 µM at HDAC1 enzyme is 7%; on HDAC9 enzyme, 46%; at HDAC6 enzyme it was 83%.
For `CC1(C(=O)N[C@@H]2CCCC[C@H]2N2Cc3ccc(-c4noc(C(F)(F)F)n4)cc3C2=O)CC1` [Example 36, 1-methyl-N-((1R,2R)-2-(1-oxo-6-(5-(trifluoromethyl)-1,2,4-oxadiazol-3-yl)-1,3-dihydro-2H-isoindol-2-yl)cyclohexyl) cyclopropanecarboxamide], the values for the inhibition at 1 µM at HDAC1 enzyme, on HDAC9 enzyme and on HDAC6 enzyme were 12%, 66% and 98%, respectively.
Turning to `O=C(N[C@@H]1CCCC[C@H]1N1Cc2ccc(-c3noc(C(F)(F)F)n3)cc2C1=O)C1CCOCC1` [Example 37, N-((1R,2R)-2-(1-oxo-6-(5-(trifluoromethyl)-1,2,4-oxadiazol-3-yl)-1,3-dihydro-2H-isoindol-2-yl)cyclohexyl)tetrahydro-2H-pyran-4-carboxamide], the inhibition at 1 µM at HDAC1 enzyme is 1%; on HDAC9 enzyme, 19%; at HDAC6 enzyme, 96%.
With `CC(=O)N1CCC(N2Cc3ncc(-c4noc(C(F)(F)F)n4)cc3C2=O)CC1` [Example 38, 6-(1-acetylpiperidin-4-yl)-3-(5-(trifluoromethyl)-1,2,4-oxadiazol-3-yl)-6,7-dihydro-5H-pyrrolo[3,4-b]pyridin-5-one], the figures for the inhibition at 1 µM on HDAC1 enzyme, on HDAC9 enzyme and on HDAC6 enzyme were 25%, 82% and 90%, respectively.
As to `CC(=O)N1CCCC(N2Cc3ncc(-c4noc(C(F)(F)F)n4)cc3C2=O)C1` (stereo not drawn) [Example 39, 6-(1-acetylpiperidin-3-yl)-3-(5-(trifluoromethyl)-1,2,4-oxadiazol-3-yl)-6,7-dihydro-5H-pyrrolo[3,4-b]pyridin-5-one], the values for the inhibition at 1 µM on HDAC1 enzyme, on HDAC9 enzyme and at HDAC6 enzyme were 23%, 86% and 91%, respectively.
For `O=C(c1ccccc1)N1CCCC(N2Cc3ncc(-c4noc(C(F)(F)F)n4)cc3C2=O)C1` (stereo not drawn) [Example 40, 6-(1-benzoylpiperidin-3-yl)-3-(5-(trifluoromethyl)-1,2,4-oxadiazol-3-yl)-6,7-dihydro-5H-pyrrolo[3,4-b]pyridin-5-one], in that order: 56%, 97% and 95%.
Consider `O=C(Cc1ccc(F)cc1)N1CCCC(N2Cc3ncc(-c4noc(C(F)(F)F)n4)cc3C2=O)C1` (stereo not drawn) [Example 41, 6-(1-((4-fluorophenyl)acetyl)piperidin-3-yl)-3-(5-(trifluoromethyl)-1,2,4-oxadiazol-3-yl)-6,7-dihydro-5H-pyrrolo[3,4-b]pyridin-5-one], for which the inhibition at 1 µM at HDAC1 enzyme turned out to be 37%; at HDAC9 enzyme, 94%; on HDAC6 enzyme it was 93%.
For `CC1(C(=O)N[C@@H]2CCCC[C@H]2N2Cc3ccc(-c4noc(C(F)(F)F)n4)cc3C2=O)COC1` [Example 42, 3-methyl-N-((1R,2R)-2-(1-oxo-6-(5-(trifluoromethyl)-1,2,4-oxadiazol-3-yl)-1,3-dihydro-2H-isoindol-2-yl)cyclohexyl)oxetane-3-carboxamide], in that order: 15%, 41% and 100%.
As to `NC(=O)N1CC[C@@H](N2Cc3ccc(-c4noc(C(F)(F)F)n4)cc3C2=O)[C@H](c2ccccc2)C1` [Example 43, (3R,4R)-4-(1-oxo-6-(5-(trifluoromethyl)-1,2,4-oxadiazol-3-yl)-1,3-dihydro-2H-isoindol-2-yl)-3-phenylpiperidine-1-carboxamide], the inhibition at 1 µM on HDAC1 enzyme came to 90%; at HDAC9 enzyme, 96%; at HDAC6 enzyme it was 99%.
On to `CCNC(=O)N1CC[C@@H](N2Cc3ccc(-c4noc(C(F)(F)F)n4)cc3C2=O)[C@H](c2ccccc2)C1` [Example 44, (3R,4R)-N-ethyl-4-(1-oxo-6-(5-(trifluoromethyl)-1,2,4-oxadiazol-3-yl)-1,3-dihydro-2H-isoindol-2-yl)-3-phenylpiperidine-1-carboxamide], for which the results for the inhibition at 1 µM on HDAC1 enzyme, at HDAC9 enzyme and on HDAC6 enzyme were 88%, 95% and 98%, respectively.
On to `O=C1C[C@](Cc2ccccc2)(N2Cc3ccc(-c4noc(C(F)(F)F)n4)cc3C2=O)CN1` [Example 61, 2-((3S)-3-benzyl-5-oxopyrrolidin-3-yl)-6-(5-(trifluoromethyl)-1,2,4-oxadiazol-3-yl)isoindolin-1-one], for which the inhibition at 1 µM on HDAC1 enzyme is 41%; on HDAC9 enzyme, 93%; on HDAC6 enzyme, 99%.
